Experimental data from patent US5763404A, “Methods for using LHRH antagonists with low histamine release” (priority 1995, dated 1998).
Starred links: 1 amine or outer side, 2 acyl side, 3 side chain; linkers in the order of their positions; H or OH if unused. Non-standard residues stand in square brackets, D forms with d. Residues, ends and D or L forms follow the SMILES beside them. *: point of attachment. dAla(cis-4-NHCOPyz-cHex) = N[C@H](C[C@H]1CC[C@@H](NC(=O)c2cnccn2)CC1)C(=O)O; X1 = O=C(N[C@H]1CC[C@@H](C[C@@H](N[*:1])C(=O)[*:2])CC1)c1ccccn1; X4 = O=C(N[C@H]1CC[C@@H](C[C@@H](N[*:1])C(=O)[*:2])CC1)c1cccnc1; X8 = O=C(N[C@H]1CC[C@@H](C[C@@H](N[*:1])C(=O)[*:2])CC1)c1ccncn1; X6 = O=C(N[C@H]1CC[C@H](C[C@@H](N[*:1])C(=O)[*:2])CC1)c1ccccn1; X7 = O=C(N[C@H]1CC[C@H](C[C@@H](N[*:1])C(=O)[*:2])CC1)c1cccnc1; dPhe(3,4-Cl2) = N[C@H](Cc1ccc(Cl)c(Cl)c1)C(=O)O; dPhe(4-Cl) = N[C@H](Cc1ccc(Cl)cc1)C(=O)O; d2Nal = N[C@H](Cc1ccc2ccccc2c1)C(=O)O; X11 = O=C([C@H](N[*:1])c1ccsc1)[*:2]; Lys(iPr) = CC(C)NCCCC[C@H](N)C(=O)O; Orn(iPr) = CC(C)NCCC[C@H](N)C(=O)O; 3Pal = N[C@@H](Cc1cccnc1)C(=O)O; d3Pal = N[C@H](Cc1cccnc1)C(=O)O; NMeL = CN[C@@H](CC(C)C)C(=O)O; Nicotinoyl = O=C(c1cccnc1)*; Picolinoyl = O=C(c1ccccn1)*; dAbu = CC[C@@H](N)C(=O)O

What follows are compounds tested on anaesthesized rats (assay: wheal test, intradermal injection). Conditions: 10 ug peptide intradermally.
Format: in vivo, rat
Protocol: The antiovulatory activity, AOA, in rats was determined as described by Humphries et al. (12). Antiovulation assays were performed by counting, on estrus, the number of ova shed by 4-day cycling rats after a single sc injection of the LH-RH analogue in corn oil was administered between 12 and 12:30 p.m. on […]. The control rats received 0.3 mL of the vehicle. The wheal test was performed by intradermally injecting 10 ug of peptide in 100 ul of saline into anaesthesized rats, measuring the ideally circular wheal response and calculating the area. The in vitro histamine release test was done as described by Karten et al. (4). A suspension of rat mast cells was added to increasing concentrations of peptide and the mixture was incubated for a few minutes followed by centrifugation to collect the histamine in the supernatant. A PIPES (piperazine-N,N'-bis[2-ethanesulfonic acid]) medium buffered at pH 7.4 containing NaCl 119 mM, KCl 5 mM, PIPES 25 mM, NaOH 40 mM, glucose 5.6 mM, CaCl2 1 mM, and 0.1% bovine serum albumin was used. This was designated as PIPES AC. Peptides were dissolved in double distilled H2 O at a concentration of 2 mg/ml and stored at -20° C. They were thawed just prior to testing, diluted in PIPES AC and prewarmed for five minutes at 37° C. Peptides studied were stable to heating at 56° C. for two hours, and to freezing and thawing.

Wheal Area [mm^2 /10 μg] | Compound
119.5 ± 3.2 | CC(=O)N[C@H](Cc1ccc2ccccc2c1)C(=O)N[C@H](Cc1ccc(Cl)cc1)C(=O)N[C@H](Cc1cccnc1)C(=O)N[C@@H](CO)C(=O)N[C@@H](CCCCNC(=O)c1cccnc1)C(=O)N[C@H](C[C@H]1CC[C@H](NC(=O)c2cccnc2)CC1)C(=O)N[C@@H](CC(C)C)C(=O)N[C@@H](CCCCNC(C)C)C(=O)N1CCC[C@H]1C(=O)N[C@H](C)C(N)=O [IBR 25647] (Ac-[d2Nal][dPhe(4-Cl)][d3Pal]SK(Nicotinoyl)[X7]L[Lys(iPr)]P[dA]-NH2)
110.5 ± 11.4 | CC(=O)N[C@H](Cc1ccc2ccccc2c1)C(=O)N[C@H](Cc1ccc(Cl)cc1)C(=O)N[C@H](Cc1cccnc1)C(=O)N[C@@H](CO)C(=O)N[C@@H](CCCCNC(=O)c1cccnc1)C(=O)N[C@H](CCCCNC(=O)c1cccnc1)C(=O)N(C)[C@@H](CC(C)C)C(=O)N[C@@H](CCCCNC(C)C)C(=O)N1CCC[C@H]1C(=O)N[C@H](C)C(N)=O [compound 26345] (Ac-[d2Nal][dPhe(4-Cl)][d3Pal]SK(Nicotinoyl)[dK](Nicotinoyl)[NMeL][Lys(iPr)]P[dA]-NH2)

Further lines, the compound ahead of its results:

Compound | Wheal Area [mm^2 /10 μg]
CC(=O)N[C@H](Cc1ccc2ccccc2c1)C(=O)N[C@H](Cc1ccc(Cl)cc1)C(=O)N[C@H](Cc1cccnc1)C(=O)N[C@@H](CO)C(=O)N[C@@H](Cc1ccc(O)cc1)C(=O)N[C@H](C[C@H]1CC[C@@H](NC(=O)c2cnccn2)CC1)C(=O)N[C@@H](CC(C)C)C(=O)N[C@@H](CCCCNC(C)C)C(=O)N1CCC[C@H]1C(=O)N[C@H](CO)C(N)=O [compound 26365] (Ac-[d2Nal][dPhe(4-Cl)][d3Pal]SY[dAla(cis-4-NHCOPyz-cHex)]L[Lys(iPr)]P[dS]-NH2) | 129.4 ± 3.3
CC(=O)N[C@H](Cc1ccc2ccccc2c1)C(=O)N[C@H](Cc1ccc(Cl)cc1)C(=O)N[C@@H](C(=O)N[C@@H](CO)C(=O)N[C@@H](CCCCNC(=O)c1ccccn1)C(=O)N[C@H](C[C@H]1CC[C@@H](NC(=O)c2cnccn2)CC1)C(=O)N[C@@H](CC(C)C)C(=O)N[C@@H](CCCCNC(C)C)C(=O)N1CCC[C@H]1C(=O)N[C@H](C)C(N)=O)c1ccsc1 [compound 26349] (Ac-[d2Nal][dPhe(4-Cl)][X11]SK(Picolinoyl)[dAla(cis-4-NHCOPyz-cHex)]L[Lys(iPr)]P[dA]-NH2) | 84.6 ± 3.9
CCNC(=O)[C@@H]1CCCN1C(=O)[C@H](CCCCNC(C)C)NC(=O)[C@H](CC(C)C)NC(=O)[C@@H](C[C@H]1CC[C@@H](NC(=O)c2cnccn2)CC1)NC(=O)[C@H](CCCCNC(=O)c1ccccn1)NC(=O)[C@H](CO)NC(=O)[C@@H](Cc1cccnc1)NC(=O)[C@@H](Cc1ccc(Cl)cc1)NC(=O)[C@@H](Cc1ccc2ccccc2c1)NC(C)=O [compound 26383] (Ac-[d2Nal][dPhe(4-Cl)][d3Pal]SK(Picolinoyl)[dAla(cis-4-NHCOPyz-cHex)]L[Lys(iPr)]P-NHEt) | 119.6 ± 6.6
CC[C@@H](NC(=O)[C@@H]1CCCN1C(=O)[C@H](CCCCNC(C)C)NC(=O)[C@H](CC(C)C)NC(=O)[C@@H](CCCCNC(=O)c1ccccn1)NC(=O)[C@H](CCCCNC(=O)c1ccccn1)NC(=O)[C@H](CO)NC(=O)[C@@H](Cc1cccnc1)NC(=O)[C@@H](Cc1ccc(Cl)cc1)NC(=O)[C@@H](Cc1ccc2ccccc2c1)NC(C)=O)C(N)=O [compound 26019] (Ac-[d2Nal][dPhe(4-Cl)][d3Pal]SK(Picolinoyl)[dK](Picolinoyl)L[Lys(iPr)]P[dAbu]-NH2) | 109.9 ± 3.0
CC(=O)N[C@H](Cc1ccc2ccccc2c1)C(=O)N[C@H](Cc1ccc(Cl)cc1)C(=O)N[C@H](Cc1cccnc1)C(=O)N[C@@H](CO)C(=O)N[C@@H](CCCCNC(=O)c1ccccn1)C(=O)N[C@H](CCCCNC(=O)c1ccccn1)C(=O)N[C@@H](C)C(=O)N[C@@H](CCCCNC(C)C)C(=O)N1CCC[C@H]1C(=O)N[C@H](C)C(N)=O [compound 26099] (Ac-[d2Nal][dPhe(4-Cl)][d3Pal]SK(Picolinoyl)[dK](Picolinoyl)A[Lys(iPr)]P[dA]-NH2) | 103.9 ± 3.7
CC(=O)N[C@H](Cc1ccc2ccccc2c1)C(=O)N[C@H](Cc1ccc(Cl)cc1)C(=O)N[C@H](Cc1cccnc1)C(=O)N[C@@H](CO)C(=O)N[C@@H](CCCCNC(=O)c1ccccn1)C(=O)N[C@H](C[C@H]1CC[C@@H](NC(=O)c2ccncn2)CC1)C(=O)N[C@@H](CC(C)C)C(=O)N[C@@H](CCCCNC(C)C)C(=O)N1CCC[C@H]1C(=O)N[C@H](C)C(N)=O [compound 26323] (Ac-[d2Nal][dPhe(4-Cl)][d3Pal]SK(Picolinoyl)[X8]L[Lys(iPr)]P[dA]-NH2) | 120.4 ± 4.7
CC(=O)N[C@H](Cc1ccc2ccccc2c1)C(=O)N[C@H](Cc1ccc(Cl)cc1)C(=O)N[C@H](Cc1cccnc1)C(=O)N[C@@H](CO)C(=O)N[C@@H](CCCCNC(=O)c1ccccn1)C(=O)N[C@H](C[C@H]1CC[C@@H](NC(=O)c2ccccn2)CC1)C(=O)N[C@@H](CC(C)C)C(=O)N[C@@H](CCCCNC(C)C)C(=O)N1CCC[C@H]1C(=O)N[C@H](C)C(N)=O [IV-4] (Ac-[d2Nal][dPhe(4-Cl)][d3Pal]SK(Picolinoyl)[X1]L[Lys(iPr)]P[dA]-NH2) | 123.0 ± 5.0
CC[C@H](C)[C@H](NC(=O)[C@@H](CCCCNC(=O)c1ccccn1)NC(=O)[C@H](CCCCNC(=O)c1ccccn1)NC(=O)[C@H](CO)NC(=O)[C@@H](Cc1cccnc1)NC(=O)[C@@H](Cc1ccc(Cl)cc1)NC(=O)[C@@H](Cc1ccc2ccccc2c1)NC(C)=O)C(=O)N[C@@H](CCCCNC(C)C)C(=O)N1CCC[C@H]1C(=O)N[C@H](C)C(N)=O [compound 26020] (Ac-[d2Nal][dPhe(4-Cl)][d3Pal]SK(Picolinoyl)[dK](Picolinoyl)I[Lys(iPr)]P[dA]-NH2) | 110.7 ± 2.3
CC(=O)N[C@H](Cc1ccc2ccccc2c1)C(=O)N[C@H](Cc1ccc(Cl)cc1)C(=O)N[C@H](Cc1cccnc1)C(=O)N[C@@H](CO)C(=O)N[C@@H](CCCCNC(=O)c1ccccn1)C(=O)N[C@H](C[C@H]1CC[C@H](NC(=O)c2ccccn2)CC1)C(=O)N[C@@H](CC(C)C)C(=O)N[C@@H](CCCCNC(C)C)C(=O)N1CCC[C@H]1C(=O)N[C@H](C)C(N)=O [IV-3] (Ac-[d2Nal][dPhe(4-Cl)][d3Pal]SK(Picolinoyl)[X6]L[Lys(iPr)]P[dA]-NH2) | 101.0 ± 3.0
CC(=O)N[C@H](Cc1ccc2ccccc2c1)C(=O)N[C@H](Cc1cccnc1)C(=O)N[C@H](Cc1ccc(Cl)cc1)C(=O)N[C@@H](CO)C(=O)N[C@@H](CCCCNC(=O)c1ccccn1)C(=O)N[C@H](CCCCNC(=O)c1ccccn1)C(=O)N[C@@H](CC(C)C)C(=O)N[C@@H](CCCNC(C)C)C(=O)N1CCC[C@H]1C(=O)N[C@H](C)C(N)=O [compound 26364] (Ac-[d2Nal][d3Pal][dPhe(4-Cl)]SK(Picolinoyl)[dK](Picolinoyl)L[Orn(iPr)]P[dA]-NH2) | 116.2 ± 5.5

Same assay, conditions: Table I; 10 ug peptide intradermally

Wheal [mm^2 /10] | Compound
103.9 | CC(=O)N[C@H](Cc1ccc(Cl)c(Cl)c1)C(=O)N[C@H](Cc1ccc(Cl)cc1)C(=O)N[C@H](Cc1cccnc1)C(=O)N[C@@H](CO)C(=O)N[C@@H](Cc1ccc(O)cc1)C(=O)N[C@H](CCCCNC(=O)c1cccnc1)C(=O)N[C@@H](CC(C)C)C(=O)N[C@@H](CCCCNC(C)C)C(=O)N1CCC[C@H]1C(=O)N[C@H](C)C(N)=O [compound 25338] (Ac-[dPhe(3,4-Cl2)][dPhe(4-Cl)][d3Pal]SY[dK](Nicotinoyl)L[Lys(iPr)]P[dA]-NH2)
85 | CC(=O)N[C@H](Cc1ccc2ccccc2c1)C(=O)N[C@H](Cc1ccc(Cl)cc1)C(=O)N[C@H](Cc1cccnc1)C(=O)N[C@@H](CO)C(=O)N[C@@H](Cc1ccc(O)cc1)C(=O)N[C@H](CCCCNC(=O)c1cccnc1)C(=O)N[C@@H](CC(C)C)C(=O)N[C@@H](CCCNC(=N)N)C(=O)N1CCC[C@H]1C(=O)N[C@H](C)C(N)=O [compound 22396] (Ac-[d2Nal][dPhe(4-Cl)][d3Pal]SY[dK](Nicotinoyl)LRP[dA]-NH2)
139.9 | CC(=O)N[C@H](Cc1ccc2ccccc2c1)C(=O)N[C@H](Cc1ccc(Cl)cc1)C(=O)N[C@H](Cc1cccnc1)C(=O)N[C@@H](CO)C(=O)N[C@@H](Cc1cccnc1)C(=O)N[C@H](CCCCNC(=O)c1cccnc1)C(=O)N[C@@H](CC(C)C)C(=O)N[C@@H](CCCNC(C)C)C(=O)N1CCC[C@H]1C(=O)N[C@H](C)C(N)=O [compound 25384] (Ac-[d2Nal][dPhe(4-Cl)][d3Pal]S[3Pal][dK](Nicotinoyl)L[Orn(iPr)]P[dA]-NH2)
113.6 | CC(=O)N[C@H](Cc1ccc2ccccc2c1)C(=O)N[C@H](Cc1ccc(Cl)cc1)C(=O)N[C@H](Cc1cccnc1)C(=O)N[C@@H](CO)C(=O)N[C@@H](CCCCNC(=O)c1cccnc1)C(=O)N[C@H](C[C@H]1CC[C@@H](NC(=O)c2cccnc2)CC1)C(=O)N[C@@H](CC(C)C)C(=O)N[C@@H](CCCCNC(C)C)C(=O)N1CCC[C@H]1C(=O)N[C@H](C)C(N)=O [compound 25648] (Ac-[d2Nal][dPhe(4-Cl)][d3Pal]SK(Nicotinoyl)[X4]L[Lys(iPr)]P[dA]-NH2)
132.8 | CC(=O)N[C@H](Cc1ccc2ccccc2c1)C(=O)N[C@H](Cc1ccc(Cl)cc1)C(=O)N[C@H](Cc1cccnc1)C(=O)N[C@@H](CO)C(=O)N[C@@H](Cc1cccnc1)C(=O)N[C@H](CCCCNC(=O)c1cccnc1)C(=O)N[C@@H](CC(C)C)C(=O)N[C@@H](CCCCNC(C)C)C(=O)N1CCC[C@H]1C(=O)N[C@H](C)C(N)=O [compound 25383] (Ac-[d2Nal][dPhe(4-Cl)][d3Pal]S[3Pal][dK](Nicotinoyl)L[Lys(iPr)]P[dA]-NH2)
